Measurements from PubChem BioAssay (NCI).
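Compound exposure: 48 hours, 5 concentrations, 96-well plates. GI50 marks 50% less growth. TGI denotes the concentration required for complete inhibition of growth.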

How the values were obtained:
Assay in all cases: NCI-60 cell line screen, 48 h
HCT-15 colon = test system: HCT-15 colon
HL-60(TB) leukemia = test system: HL-60(TB) leukemia
IGROV1 ovarian = test system: IGROV1 ovarian
LOX IMVI melanoma = test system: LOX IMVI melanoma
M14 melanoma = test system: M14 melanoma
NCI-H226 lung = test system: NCI-H226 lung
NCI-H23 lung = test system: NCI-H23 lung
SF-539 CNS = test system: SF-539 CNS
MOLT-4 leukemia = test system: MOLT-4 leukemia
K-562 leukemia = test system: K-562 leukemia

Row | Structure (SMILES) | TGI (HCT-15 colon) [µM] | TGI (HL-60(TB) leukemia) [µM] | TGI (IGROV1 ovarian) [µM] | TGI (LOX IMVI melanoma) [µM] | TGI (M14 melanoma) [µM] | TGI (NCI-H226 lung) [µM] | TGI (NCI-H23 lung) [µM] | TGI (SF-539 CNS) [µM] | GI50 (HCT-15 colon) [µM] | GI50 (HL-60(TB) leukemia) [µM] | GI50 (IGROV1 ovarian) [µM] | GI50 (LOX IMVI melanoma) [µM] | GI50 (M14 melanoma) [µM] | GI50 (MOLT-4 leukemia) [µM] | TGI (MOLT-4 leukemia) [µM] | GI50 (NCI-H226 lung) [µM] | GI50 (NCI-H23 lung) [µM] | GI50 (SF-539 CNS) [µM] | GI50 (K-562 leukemia) [µM] | TGI (K-562 leukemia) [µM]
1 | CCCCCCCCCCCCCC(=O)NCC(OCC)OCC | > 100 | > 100 | > 100 | > 100 | > 100 | > 100 | > 100 | > 100 |  |  |  |  |  |  |  |  |  |  |  | 
2 | CNCCNc1nc2ccccc2c2c(=O)c3cc(OC)ccc3sc12 | 2.83 | 3.6 | 3.04 | 2.88 | 3.23 | 3.61 | 3.05 | 3.03 | 1.39 | 1.9 | 1.55 | 1.51 | 1.73 | 1.77 | 3.53 | 1.75 | 1.62 | 1.66 |  | 
3 | COC(=O)[C@H]1[C@H]2C[C@@H]3c4[nH]c5cc(OC)ccc5c4CCN3C[C@H]2C[C@@H](OC(=O)/C=C/c2cc(OC)c(OC)c(OC)c2)[C@@H]1OC | > 100 |  | 34.6 | 13.1 | 20 | > 100 | 53 | 25.4 | 4.32 |  | 6.72 | 3.31 | 6.24 | 3.33 | > 100 | 26.7 | 17.6 | 12.5 | 3.24 | 38.4
4 | CCN(CC)CCOc1c(OC)c(Br)cc2c(C)c(C(=O)OC)oc12 | 2.46 |  | 7.05 | 1.45 | 4.4 | 3.39 | 2.68 | 3.15 | 0.864 |  | 1.4 | 0.749 | 1.18 | 0.374 | 1.23 | 1.16 | 1.12 | 1.47 | 0.332 | 2.09
5 | N#Cc1c(C[n+]2ccccc2)c2ccccc2oc1=O | > 100 |  | > 100 | > 100 | > 100 | > 100 | > 100 | > 100 |  |  |  |  |  |  | > 100 |  |  |  |  | > 100
6 | COc1cc2c3c(ncc2c(OC)c1OC)-c1cc2c(cc1C3)OCO2 | > 100 | 4.26 |  |  | > 100 |  |  |  | 32.6 | 0.0288 |  |  | > 100 |  |  |  |  |  | 4.27 | 20.5
7 | CCOC(=O)C1=C(Nc2ccc(Cl)c(Cl)c2)OC/C1=N\NC(=O)Cc1ccccc1 |  | > 100 | > 100 | > 100 | > 100 | > 100 | > 100 | > 100 |  |  |  |  |  |  | > 100 |  |  |  |  | > 100
8 | COC(=O)c1ccc(CN2C(=O)C(Cl)=C(Nc3ccc(OC)c(Cl)c3)C2=O)cc1 | 42.4 | > 50 | > 50 | 26.7 | > 50 |  | 39.3 |  | 5.2 | 32 | 10.6 | 5.66 | 32.6 | 5.83 | 49 |  | 14.4 |  | 4.17 | > 50
9 | O=C1CCN2CCC(=O)c3c2c(cc2ccccc32)N1 | > 100 |  | > 100 | > 100 | > 100 | > 100 |  | > 100 |  |  |  |  |  |  | > 100 |  |  |  |  | > 100
10 | CCCCCCNC(=O)n1cc(F)c(=O)[nH]c1=O | 28.7 | 30.6 |  | 16.3 | 23.9 | 23.3 | 49.1 | 15.1 | 4.26 | 6.84 |  | 2.06 | 7.77 | 7.28 | 44.2 | 10.6 | 6.26 | 0.514 |  | 
11 | C/C=C(/C)c1cnc(CC(C)C)c(=O)[nH]1 | > 100 |  | > 100 | > 100 |  |  | > 100 |  |  |  |  |  |  |  | > 100 |  |  |  |  | > 100
12 | COc1c(Sc2ccccc2)cc(Sc2ccccc2)c2cccnc12 | 49.3 |  | > 100 | 42.7 | > 100 |  | 62.1 | 85.5 |  |  |  |  |  |  | 48.1 |  |  |  |  | > 100
13 | Clc1ccc2c(c1)C(N1CCNCC1)=Nc1ccccc1O2 | 11.7 | 3.86 | 11.1 | 2.87 | 3.07 | 11.9 | 14.3 | 3.36 | 3.26 | 1.95 | 2.89 | 1.54 | 1.68 | 1.82 | 4.19 | 2.57 | 3.46 | 1.75 |  | 
14 | CCOC(=O)c1c2c(n(Cc3ccccc3)c1C)-c1nc(Cc3ccccc3)[nH]c1C(=O)C2=O | 2.94 |  | 2.68 | 3.17 | 3.49 | 4.39 | 3.59 | 3.3 | 1.59 |  | 1.24 | 1.78 | 1.75 | 2.13 | 5.41 | 1.67 | 1.82 | 1.77 | 1.85 | 4.05
15 | COc1ccccc1NC(=O)C1=C(C)NC(C)=C(C(=O)Nc2ccccc2OC)C1c1ccc(N(C)C)cc1 |  | 40.7 | > 100 | 42.2 | 69.7 | 51.3 | 82.3 | 73.7 |  |  |  |  |  |  | 64.5 |  |  |  |  | 54.3
16 | COC(=O)C(=O)C(C(=O)C(N)=O)c1nc2ccc(C(=O)c3ccccc3)cc2[nH]c1=O (configuration not stated) | > 100 | > 100 | > 100 | > 100 | > 100 | > 100 |  | > 100 |  |  |  |  |  |  | > 100 |  |  |  |  | > 100
17 | O=C(O)c1cccc(/C=C/c2ccccc2)c1 | > 100 |  | > 100 | > 100 | > 100 | > 100 | > 100 | > 100 |  |  |  |  |  |  | > 100 |  |  |  |  | 
18 | COC(=O)c1ccc2c(c1)C(=O)c1c-2n(CCCN)c(=O)c2cc(OC)c(OC)cc12 | 30.5 |  | 29.2 | 32 | 34.4 | 36.7 | 33.5 | 34.7 | 14.1 |  | 13.6 | 14.6 | 18.7 | 1.83 | 4.67 | 16.7 | 17.1 | 17.7 | 2.41 | 5.44
19 | CC1(O)CCC2(C)C(=O)C1(C)CCC21OCCO1 (configuration not stated) | > 100 | > 100 | > 100 |  | > 100 | > 100 | > 100 | > 100 |  |  |  |  |  |  | > 100 |  |  |  |  | > 100
20 | COC(=O)c1cc(-c2ccc(OC)cc2)[nH]c1N/N=C/c1c(Cl)cccc1Cl | 1.49 | 0.574 |  | 5.42 | 1.1 | 28.1 | 14 | 0.553 | 0.204 | 0.235 |  | 0.146 | 0.196 | 0.415 |  | 0.574 | 0.412 | 0.172 | 0.144 | 6.65
21 | Cc1c(C(=O)CC(=O)C(=O)Nc2cc(Cl)ccc2Cl)[n+](=O)c2ccccc2n1[O-] | 90.2 |  | > 100 | 93.5 | 64.4 | > 100 | > 100 | > 100 |  |  |  |  |  |  | 66.5 |  |  |  |  | > 100
22 | C[C@]12CC[C@@H](OC(=O)N(CCCl)N=O)C[C@@H]1CC[C@@H]1[C@@H]2CC[C@]2(C)C(=O)CC[C@@H]12 | 32.4 |  | 24 | 22.1 | 44.9 | 31.4 | 67.2 | 13.4 | 12.1 |  | 3.75 | 5.6 | 14.7 |  | > 57.7 | 14.6 | 15.3 | 0.33 |  | > 100
23 | CC1=NOC(=O)C1N=Nc1ccc(Br)c(C)c1 (configuration not stated) | 41.6 | 23.8 | 39.4 |  | 36.1 | 53.4 | 44.2 | 44.6 |  |  |  |  |  |  | 45.3 |  |  |  |  | 30.5
24 | CCCCN(CC)c1ncnc2ccc(Br)cc12 | 54.7 |  | > 100 | 38.7 | 34.7 | 48 | 44.4 |  | 22.1 |  | 16.7 | 17.9 | 18.2 | 2.45 | > 100 | 16.3 | 18.8 |  | 10.4 | 51.1
25 | Nc1ccc(C(=O)CC2(O)C(=O)Nc3c(Cl)cc(Cl)cc32)cc1 (configuration not stated) | > 100 | 78.5 |  | > 100 | > 100 | > 100 | > 100 | > 100 |  |  |  |  |  |  | > 100 |  |  |  |  | > 100
26 | COC(=O)C(CC(=O)c1c[nH]c2ccccc12)c1c[nH]c2ccccc12 (configuration not stated) | 36.3 | 49.4 | > 10 |  | 41.9 | 54.3 | 34 | 39.5 |  |  |  |  |  |  | 46.7 |  |  |  |  | 66.7
27 | CC[C@H](Nc1nc(N)nc(C2CC2)c1C#N)c1nc2cccc(NCc3ccc(C(=O)NO)cc3)c2c(=O)n1-c1ccccc1 | 6.96 | 5.65 |  |  | 4.66 | 4.18 | 4.48 | 3.24 | 2.05 | 2.35 |  |  | 2.02 | 2.2 | 10.9 | 1.47 | 1.98 | 1.72 | 2.81 | > 100
